According to article PMC9138141, “Design, Spectral Characteristics, Photostability, and Possibilities for Practical Application of BODIPY FL-Labeled Thioterpenoid” (Bioengineering, 2022):
Like-named read-outs stand apart in the source and are kept apart here. One block for each compound: values may come before it.

Key:
[1] = Photobleaching (photodegradation) under UV irradiation at 365 nm; assay type: physicochemical; conditions: for kobs∙106 of photodegradation / half-life: UV 365 nm; for half-life: read-out: t1/2 of photodegradation (converted)
Protocol: The photofading was carried out in quartz cells. The BODIPY solutions in cyclohexane (toluene, 1-octanol, DMSO with c = ~1·10^−5 mol·L^−1) were irradiated with monochromatic light (mercury lamp 250 W with a light filter Carl Zeiss JENA, at λ = 365 nm and room temperature). The area of the light flux was 2.02 cm^2 at a specific power W365 = 4.04 mW·cm^−2 of the UV lamp. The irreversible bleaching of the luminophores at the absorption peak was monitored as a function of time. The EAS of the dye solution was recorded at equal intervals of irradiation (through 5–20 min) on a spectrofluorometer SM2203 in the 300–600 nm wavelength range. The half-life (t1/2) was defined as the time during which the chromophore is destroyed by 50%. The error in determining of t1/2 is 3–5%.
The observed photooxidation rate constants (kobs) were determined by the equation ln(At/A0) = kobs∙t, where A0 and At are the initial and current optical density at the maximum of the long-wavelength absorption band, respectively, and t is the time of irradiation of the sample with UV light.

[2] = system: laboratory mice erythrocytes; assay: Hemolytic activity (erythrotoxicity); assay type: cell-based; conditions: 20 µM, entire incubation period 5 h, 37 °C, PBS pH 7.4
Protocol: A 0.5% (v/v) suspension of laboratory mice erythrocytes in phosphate-buffered saline (PBS, pH 7.4) was used. The hemolytic activity (erythrotoxicity) of the compounds 2 and 6 was assessed by the degree of erythrocyte hemolysis 1, 3, and 5 h after the addition of solutions of the test compounds in DMSO (final concentration 20 μM). The erythrocyte suspension was incubated in a thermostatic shaker Biosan ES-20 with slow stirring at 37 °C temperature for 5 h. After 1, 3, and 5 h, an aliquot was taken, centrifuged, the degree of hemolysis was determined by the hemoglobin content in the supernatant on a Thermo Spectromic Genesys 20 spectrophotometer at λ = 541 nm. The percentage of hemolysis was calculated relative to the total hemolysis of the sample.

[3] = Luminescent characteristics (fluorescence) in organic solvents; assay type: physicochemical; conditions: for λmaxfl: λex 470 nm
Protocol: (§1) The absorption and emission spectra of dyes solutions (in the range of 10^−6 to 10^−5 M) were recorded on CM 2203 spectrofluorometer (SOLAR) in a 10 mm of absorbing layer thickness at T = 25 ± 0.1 °C. The fluorescence quantum yield (φ), the fluorescence lifetime (τ), the rate constants of radiative processes (krad), and-radiative deactivation (knr) were obtained to use by the standard procedure. The fluorescence quantum yields (φ) of compounds were measured using the standard method (using standard Rhodamine 6G). The φ and τ errors were 10–15 %. The Stokes shift ( ΔλSt ) was calculated by the formula: […]

[4] = Electronic absorption spectra in organic solvents; assay type: physicochemical
Protocol: as §1

[5] = system: laboratory mice erythrocytes; assay: Penetration into RBC (fluorescence of hemolysates and of residual medium); assay type: cell-based; conditions: 20 μM, 10, 30, 60 min incubation, RBC washed three times with PBS
Protocol: To assess the rate of penetration of the BODIPY 2 and its conjugate with a thioterpenoid 6 into RBC, the compounds were added to a suspension of erythrocytes (final concentration 20 μM) and incubated in a thermostatic shaker Biosan ES-20 with slow stirring at 37 °C. After 10, 30, and 60 min, an aliquot was taken and centrifuged to separate erythrocytes from the incubation medium containing the BODIPY 2 or conjugate 6. Erythrocytes were washed three times with PBS, hemolyzed by adding H2O, DMSO was added, and the fluorescence spectra of hemolysates were studied using a Fluorat-02-Panorama spectrofluorometer (Lumex, Saint Petersburg, Russia). The binding of the BODIPY 2 or conjugate 6 to cells was judged from the fluorescence intensity of the corresponding compounds in hemolysates. DMSO was added to the medium (PBS) remaining after cell incubation, and the corresponding fluorescence spectra were also analyzed. Its intensity was used to judge the residual content of the studied compounds in PBS.

[6] = range over the solvents studied

kobs∙106 of photodegradation ([1]; 1-octanol): 3.1 ± 0.3 s⁻¹
kobs∙106 of photodegradation ([1]; DMSO): 27.7 ± 0.3 s⁻¹
kobs∙106 of photodegradation ([1]; cyclohexane): 2.9 ± 0.3 s⁻¹
half-life ([1]; solution in 1-octanol, 1-octanol): 82.3 h
half-life ([1]; solution in DMSO, DMSO): 8.3 h
half-life ([1]; solution in cyclohexane, cyclohexane): 88.6 h
half-life ([1]; solution in toluene, toluene): 40.5 h
half-life increase / photodestruction rate constant decrease compared to 7 ([1]; studied solvents): 1.5–2.2 times
kobs∙106 of photodegradation ([1]; toluene): 5.5 ± 0.3 s⁻¹
ΔλSt, Stokes shift ([3]; 1-butanol): 15 nm
φ, fluorescence quantum yield ([3]; 1-butanol): 0.966
λmaxfl ([3]; 1-butanol): 513 nm
ΔλSt, Stokes shift ([3]; 1-octanol): 16 nm
φ, fluorescence quantum yield ([3]; 1-octanol): 0.989
λmaxfl ([3]; 1-octanol): 515 nm
ΔλSt, Stokes shift ([3]; 1-propanol): 16 nm
φ, fluorescence quantum yield ([3]; 1-propanol): 0.956
λmaxfl ([3]; 1-propanol): 514 nm
ΔλSt, Stokes shift ([3]; DMF): 15 nm
φ, fluorescence quantum yield ([3]; DMF): 0.836
λmaxfl ([3]; DMF): 512 nm
ΔλSt, Stokes shift ([3]; DMSO): 15 nm
φ, fluorescence quantum yield ([3]; DMSO): 0.769
λmaxfl ([3]; DMSO): 512 nm
ΔλSt, Stokes shift ([3]; chloroform): 15 nm
φ, fluorescence quantum yield ([3]; chloroform): 0.908
λmaxfl ([3]; chloroform): 516 nm
ΔλSt, Stokes shift ([3]; cyclohexane): 12 nm
φ, fluorescence quantum yield ([3]; cyclohexane): 0.999
λmaxfl ([3]; cyclohexane): 512 nm
fluorescence quenching ([3]; electron-donating media): 16–24%
ΔλSt, Stokes shift ([3]; ethanol): 13 nm
φ, fluorescence quantum yield ([3]; ethanol): 0.910
increase of fluorescence quantum yield in the homologous series of alcohols ([3]; ethanol, 1-propanol, 1-butanol, 1-octanol): ~ 8%
λmaxfl ([3]; ethanol): 510 nm
constants of radiative processes (krad) [3, 6]: 5.96–8.33 × 10^7 s^−1
fluorescence lifetime [3, 6]: 10.2–16.0 ns
ΔλSt, Stokes shift ([3]; toluene): 17 nm
φ, fluorescence quantum yield ([3]; toluene): 0.991
λmaxfl ([3]; toluene): 518 nm
emission band maxima λmaxfl, range ([3]; λex = 470 nm, all solvents): 510–519 nm
ε, molar absorption coefficient ([4]; 1-butanol): 74136 L/mol/cm
λmaxabs S0→S1 ([4]; 1-butanol): 498 nm
λmaxabs S0→S2 ([4]; 1-butanol): 356–363 nm
ε, molar absorption coefficient ([4]; 1-octanol): 72443 L/mol/cm
λmaxabs S0→S1 ([4]; 1-octanol): 499 nm
λmaxabs S0→S2 ([4]; 1-octanol): 357–364 nm
ε, molar absorption coefficient ([4]; 1-propanol): 74948 L/mol/cm
λmaxabs S0→S1 ([4]; 1-propanol): 498 nm
λmaxabs S0→S2 ([4]; 1-propanol): 359–369 nm
ε, molar absorption coefficient ([4]; DMF): 76709 L/mol/cm
λmaxabs S0→S1 ([4]; DMF): 497 nm
λmaxabs S0→S2 ([4]; DMF): 357–363 nm
ε, molar absorption coefficient ([4]; DMSO): 66069 L/mol/cm
λmaxabs S0→S1 ([4]; DMSO): 497 nm
λmaxabs S0→S2 ([4]; DMSO): 356–363 nm
ε, molar absorption coefficient ([4]; chloroform): 74131 L/mol/cm
λmaxabs S0→S1 ([4]; chloroform): 501 nm
λmaxabs S0→S2 ([4]; chloroform): 358–363 nm
ε, molar absorption coefficient ([4]; cyclohexane): 87724 L/mol/cm
λmaxabs S0→S1 ([4]; cyclohexane): 500 nm
λmaxabs S0→S2 ([4]; cyclohexane): 359–364 nm
ε, molar absorption coefficient ([4]; ethanol): 72444 L/mol/cm
λmaxabs S0→S1 ([4]; ethanol): 497 nm
λmaxabs S0→S2 ([4]; ethanol): 356–361 nm
ε, molar absorption coefficient ([4]; toluene): 79432 L/mol/cm
λmaxabs S0→S1 ([4]; toluene): 501 nm
λmaxabs S0→S2 ([4]; toluene): 360–368 nm
SMILES: COC(=O)CCCC1=C2C(C)=CC(C)=[N+]2[B-](F)(F)n2c(C)cc(C)c21 [Compound 2]
hemolysis of RBC (erythrotoxicity) [2]: did not exceed the spontaneous level
penetration into erythrocytes (fluorescence of RBC hemolysates) [5]: practically not detected in hemolysates

ΔλSt, Stokes shift ([3]; 1-butanol): 10 nm
φ, fluorescence quantum yield ([3]; 1-butanol): 0.932
λmaxfl ([3]; 1-butanol): 516 nm
ΔλSt, Stokes shift ([3]; 1-octanol): 8 nm
φ, fluorescence quantum yield ([3]; 1-octanol): 0.941
λmaxfl ([3]; 1-octanol): 516 nm
ΔλSt, Stokes shift ([3]; 1-propanol): 10 nm
φ, fluorescence quantum yield ([3]; 1-propanol): 0.920
λmaxfl ([3]; 1-propanol): 513 nm
ΔλSt, Stokes shift ([3]; DMF): 10 nm
φ, fluorescence quantum yield ([3]; DMF): 0.990
λmaxfl ([3]; DMF): 513 nm
ΔλSt, Stokes shift ([3]; DMSO): 12 nm
φ, fluorescence quantum yield ([3]; DMSO): 0.963
λmaxfl ([3]; DMSO): 516 nm
Stokes shift, range ([3]; all solvents): 6–12 nm
ΔλSt, Stokes shift ([3]; chloroform): 8 nm
φ, fluorescence quantum yield ([3]; chloroform): 0.903
λmaxfl ([3]; chloroform): 516 nm
φ, fluorescence quantum yield ([3]; cyclohexane): 1.0
λmaxfl ([3]; cyclohexane): 514 nm
ΔλSt, Stokes shift ([3]; ethanol): 7 nm
φ, fluorescence quantum yield ([3]; ethanol): 0.879
λmaxfl ([3]; ethanol): 512 nm
ΔλSt, Stokes shift ([3]; toluene): 8 nm
φ, fluorescence quantum yield ([3]; toluene): 0.825
λmaxfl ([3]; toluene): 519 nm
ε, molar absorption coefficient ([4]; 1-butanol): 86745 L/mol/cm
λmaxabs S0→S1 ([4]; 1-butanol): 506 nm
λmaxabs S0→S2 ([4]; 1-butanol): 364–375 nm
ε, molar absorption coefficient ([4]; 1-octanol): 84427 L/mol/cm
λmaxabs S0→S1 ([4]; 1-octanol): 508 nm
λmaxabs S0→S2 ([4]; 1-octanol): 362–376 nm
ε, molar absorption coefficient ([4]; 1-propanol): 87096 L/mol/cm
λmaxabs S0→S1 ([4]; 1-propanol): 503 nm
λmaxabs S0→S2 ([4]; 1-propanol): 362–375 nm
ε, molar absorption coefficient ([4]; DMF): 85857 L/mol/cm
λmaxabs S0→S1 ([4]; DMF): 503 nm
λmaxabs S0→S2 ([4]; DMF): 364–375 nm
ε, molar absorption coefficient ([4]; DMSO): 82190 L/mol/cm
λmaxabs S0→S1 ([4]; DMSO): 504 nm
λmaxabs S0→S2 ([4]; DMSO): 363–376 nm
ε, molar absorption coefficient ([4]; chloroform): 89125 L/mol/cm
λmaxabs S0→S1 ([4]; chloroform): 508 nm
λmaxabs S0→S2 ([4]; chloroform): 363–374 nm
ε, molar absorption coefficient ([4]; cyclohexane): 91201 L/mol/cm
λmaxabs S0→S1 ([4]; cyclohexane): 509 nm
λmaxabs S0→S2 ([4]; cyclohexane): 366–376 nm
ε, molar absorption coefficient ([4]; ethanol): 81283 L/mol/cm
λmaxabs S0→S1 ([4]; ethanol): 505 nm
λmaxabs S0→S2 ([4]; ethanol): 363–374 nm
ε, molar absorption coefficient ([4]; toluene): 82444 L/mol/cm
λmaxabs S0→S1 ([4]; toluene): 511 nm
λmaxabs S0→S2 ([4]; toluene): 365–373 nm
SMILES: CC1=CC(C)=[N+]2C1=Cc1c(C)cc(C)n1[B-]2(F)F [Compound 7, 4,4-Difluoro-1,3,5,7-tetramethyl-4-bora-3a,4a-diaza-s-indacene, reference compound]
